Values joined by “and” are separate entries in the source; they are usually repeats but may differ in a detail not shown here. Equal entries are not always repeated.

The target in one data set is T1, recombinant rat mEH (Rattus norvegicus, UniProt P07687).
T1 sequence (P07687 1-455): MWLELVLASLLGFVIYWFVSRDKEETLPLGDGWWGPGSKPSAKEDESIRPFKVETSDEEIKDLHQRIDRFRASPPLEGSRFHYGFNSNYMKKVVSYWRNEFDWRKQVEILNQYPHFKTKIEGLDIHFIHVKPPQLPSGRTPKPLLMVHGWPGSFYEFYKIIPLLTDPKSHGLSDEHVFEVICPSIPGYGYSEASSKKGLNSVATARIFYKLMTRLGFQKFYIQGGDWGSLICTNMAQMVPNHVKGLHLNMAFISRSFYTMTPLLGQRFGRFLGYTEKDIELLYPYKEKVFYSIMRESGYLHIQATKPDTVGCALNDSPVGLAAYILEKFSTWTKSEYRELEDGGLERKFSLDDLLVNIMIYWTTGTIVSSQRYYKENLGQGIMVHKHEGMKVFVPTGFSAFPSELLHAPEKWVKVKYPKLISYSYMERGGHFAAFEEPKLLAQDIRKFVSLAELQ
As to the kind of experiment: Inhibition of recombinant rat mEH. Type of data set: biochemical. As for the experimental part: (§1) The micosomal enzyme plays a significant role in the metabolism of xenobiotics such as polyaromatic toxicants. Additionally, polymorphism studies have underlined a potential role of this enzyme in relation to several diseases, such as emphysema, spontaneous abortion and several forms of cancer. Inhibition of recombinant rat and human mEH can be obtained using primary ureas, amides, and amines. For example, elaidamide, has a K1 of 70 nM for recombinant rat mEH.

In data set [1] the test system is insect cell culture expressing rat mEH. As to the kind of experiment: Insect cell culture expressing rat mEH, toxicity of epoxide-containing xenobiotics. It is filed as cell-based. As for the experimental part:
as §1

The next data set has as its system WKY rats. As to the kind of experiment: Systolic blood pressure in WKY rats (tail cuff). Type of data set: in vivo, rat. The conditions noted are these: single 3 mg/kg dose. The source says:
(§2) Animals. Male SHR and WKY rats 3-13 wks of age were purchased from Charles River Laboratories (Wilmington, Mass.) and housed in a controlled environment with 12 hr light/dark cycles and fed standard laboratory chow for 3 days before euthanasia. All animal use was approved by the University of California San Francisco Committee on Animal Research and followed the National Institutes of Health guidenlines for the care and use of laboratory animals. For isolation of kidney subcellular fractions, rats were anesthetized with methoxyflurane, the abdominal cavities were opened, and the kidneys were perfused with ice-cold saline. Perfused kidneys were rapidly removed, the cortex and medulla dissected out and immersed in liquid nitrogen. All tissue was stored at −80° C. until preparation of microsomes. In some cases WKY and SHR rats were housed in metabolic cages for up to three days and urine was collected over triphenylphosphine in 24 hr intervals. The urine volume was noted and aliquots were stored at −80° C. prior to extraction and quantitation of DHETs and EETs. […] Systolic blood pressure was measured at room temperature by a photoelectric tail cuff system (Model 179, IITC, Inc., Woodland Hills, Calif.) for up to four days following the dose of inhibitor. Blood pressures are reported as the average of three separate readings over a 30 min period. […]

Data set [2] has as its system CYP epoxygenase or -hydroxylase. The experiment in a line: Renal microsomal arachidonic acid metabolism (CYP epoxygenase, hydroxylase). Type of data set: biochemical, rat. Further details: dose or concentration left out as unconfirmed. How it is done: Renal microsomal arachidonic acid metabolism. Microsomes, cytosol, and S9 fractions were prepared from the renal cortex or outer medulla samples from a single animal as described previously (Kroetz, D. L. et al. Mol Pharmacol 52, 362-372 (1997), Su, P. et al. Am J Physiol 275, R426-438 (1998)). Reaction conditions for the in vitro determination of arachidonic acid epoxygenase activity, metabolite extraction and HPLC analysis were described in detail elsewhere (Su, P. et al. Am J Physiol 275, R426-438 (1998)).

The target in the next data set is T2, mEH (Rattus norvegicus, UniProt P07687).
T2 sequence (P07687 1-455): T1 sequence (P07687 1-455)
The conditions noted are these: previous studies, Morisseau 1999; cited from earlier work.

In a further data set the target is T3, Human sEH (HsEH) (Homo sapiens, UniProt P34913).
T3 sequence (P34913 1-555): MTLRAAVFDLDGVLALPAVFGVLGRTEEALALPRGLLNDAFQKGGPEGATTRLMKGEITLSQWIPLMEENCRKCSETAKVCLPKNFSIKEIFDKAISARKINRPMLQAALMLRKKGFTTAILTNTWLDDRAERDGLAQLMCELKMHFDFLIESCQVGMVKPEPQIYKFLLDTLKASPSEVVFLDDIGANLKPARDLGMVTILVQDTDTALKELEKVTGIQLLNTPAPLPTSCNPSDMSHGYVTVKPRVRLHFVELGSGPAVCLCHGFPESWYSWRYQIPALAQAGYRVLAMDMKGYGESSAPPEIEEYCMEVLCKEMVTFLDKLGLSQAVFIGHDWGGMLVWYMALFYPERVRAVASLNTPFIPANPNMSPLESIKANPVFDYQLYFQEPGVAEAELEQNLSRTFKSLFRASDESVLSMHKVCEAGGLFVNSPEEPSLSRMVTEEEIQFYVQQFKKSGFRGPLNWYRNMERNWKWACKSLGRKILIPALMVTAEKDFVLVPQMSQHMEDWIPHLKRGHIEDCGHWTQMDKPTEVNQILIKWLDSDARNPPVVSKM
The experiment in a line: Inhibition of recombinant human sEH (HsEH). As to conditions: Table 1; HsEH 0.26 μM. Type of data set: biochemical.

Data set [3] has as its target T4, recombinant mouse sEH (MsEH) (Mus musculus, UniProt P34914).
T4 sequence (P34914 1-554): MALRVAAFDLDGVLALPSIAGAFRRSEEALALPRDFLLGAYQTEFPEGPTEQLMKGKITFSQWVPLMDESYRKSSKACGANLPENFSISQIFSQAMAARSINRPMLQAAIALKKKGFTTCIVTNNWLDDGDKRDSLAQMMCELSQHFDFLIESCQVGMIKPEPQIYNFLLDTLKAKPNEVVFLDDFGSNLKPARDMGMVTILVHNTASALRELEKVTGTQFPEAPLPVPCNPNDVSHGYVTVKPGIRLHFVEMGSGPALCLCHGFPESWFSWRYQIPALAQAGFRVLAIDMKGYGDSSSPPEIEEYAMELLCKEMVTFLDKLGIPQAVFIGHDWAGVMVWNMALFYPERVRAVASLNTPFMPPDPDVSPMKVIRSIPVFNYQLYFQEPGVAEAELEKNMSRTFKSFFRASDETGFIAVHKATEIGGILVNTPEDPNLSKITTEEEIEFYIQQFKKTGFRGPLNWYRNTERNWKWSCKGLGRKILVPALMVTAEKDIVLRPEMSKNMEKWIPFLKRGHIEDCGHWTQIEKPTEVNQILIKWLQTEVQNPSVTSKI
The experiment in a line: Inhibition of recombinant mouse sEH (MsEH). The conditions noted are these: Table 1; MsEH 0.13 μM; read-out: Mouse sEH IC50. Type of data set: biochemical.

In a further data set the test system is SHR. The experiment in a line: Systolic blood pressure in SHR (tail cuff). Type of data set: in vivo, rat. The conditions noted are these: 6 hr after single dose (3 mg/kg DCU or equimolar).
Excerpt: as §2

On to `CCCCCCCC/C=C/CCCCCCCC(N)=O` [elaidamide], for which, on recombinant rat mEH (non-covalent complex), the “inhibition kinetics with mEH” value was “apparent mix of competitive and non-competitive inhibition kinetics”. Besides, the Ki at recombinant rat mEH (read-out: K1 for recombinant rat mEH) stood at 70 nM. Moreover, the “effect on toxicity of epoxide-containing xenobiotics” value in data set [1] is reported as “enhances the toxicity effects”.
On to `O=C(NC1CCCCC1)NC1CCCCC1` [DCU, N,N′-dicyclohexylurea], for which the “effect on blood pressure in WKY” value with WKY rats is given as “unaffected”. Also, the “effect on CYP epoxygenase or -hydroxylase activity” value in data set [2] is on record as “no effect”. The “inhibition of mEH” value on mEH is “does not inhibit mEH”.
With `O=C(Nc1ccc(OC(F)(F)F)cc1)NC1CCCCC1` [compound 343], the IC50 at Human sEH (HsEH) amounted to 100 ± 10 nM; in data set [3] it was 50 ± 10 nM.
As to `CCCCCCCCCCCCNC(=O)NC1CCCCC1` [N-cyclohexyl-N′-dodecylurea], the “decrease in systolic blood pressure” value in the data set with SHR was 12±2 mm Hg and 12 mm Hg.
As to `CCCCCCNC(=O)Nc1cccc(Cl)c1` [compound 178], the figures for the half-maximal inhibitory concentration (IC50) (at Human sEH (HsEH); in data set [3]) were 250 ± 10 nM and 310 ± 10 nM, respectively.
Take `CCCCCCc1ccc(NC(=O)NC2CCCCC2)cc1` [compound 501]: the results for the IC50 (at Human sEH (HsEH); in data set [3]) were 160 ± 10 nM and 50 ± 10 nM, respectively.

Source of the values: patent US6756210B2, “Linoleic acid diol and glucuronide conjugate levels as diagnostic markers of disorders of abnormal regulation of cytochrome P450 metabolism of unsaturated fatty acids” (The Regents of the University of California, priority 2001, dated 2004).
